Laboratory results published in patent US20230277483A1, “COMPOSITIONS AND METHODS TO TREAT INFLAMMATION” (University of Iowa Research Foundation, priority 2022, published 2023).

Test system: Td (ATCC 35405)
Test: Bacterial proliferation measured by OD600
Assay type: cell-based, Treponema denticola
Settings: HCA at 0.1 μM; anaerobic culture
Method: Sg metabolites promote commensal bacterial proliferation and inhibit periodontopathogenic bacterial proliferation and colonization. Commensal bacteria, Sg, S. sanguinis (Ss, ATCC10556), S. mitis (Sm, ATCC49456) and S. oralis (So, ATCC 35037) were cultured in BHI medium. In addition, pathogenic bacteria, Pg was cultured using BHI and Tf (ATCC43037), and Td (ATCC 35405) were grown in Thioglycollate medium with vitamin K and Hemin in 90% N2, 5% H2, 5% CO2. The Sg metabolites were diluted using DMEM and added to the bacteria with the similar OD600 value. The same amount of DMEM was used as a control. During the exponential growth of bacteria, the OD600 value was measured to determine the proliferation. […] In addition, to determine the function of Sg metabolites on Pg colonization, Pg were inoculated in 24-well plates containing BHI or BHI supplemented with DMEM or Sg metabolites. […]
HCA promotes proliferation of health related bacteria and inhibits proliferation and attachment of periodontopathogenic bacteria. […] The composition of the microbiomes was determined by amplifying the V3 and V4 regions of the 16S rRNA genes. Raw data in FASTQ format were filtered and denoised using DADA2 (Divisive Amplicon Denoising Algorithm) to generate amplicon sequence variants (ASV) or operational taxonomical units (OTUs) that were then analyzed by QIIME2.

SMILES: O=C(O)CCCCCO [HCA, 6-hydroxycaproic acid]
- proliferation of T. denticola: significantly inhibits
